pIC50: −log10 of the molar value.
Biological target: T1, Elastase from porcine pancreas (Sus scrofa, UniProt P00772)
T1 construct: gene CELA1
Assay: enzyme inhibition assay, p-nitroaniline release from N-succinyl-Ala-Ala-Ala-p-nitroanilide
Type: biochemical

T1 sequence (P00772 27-266): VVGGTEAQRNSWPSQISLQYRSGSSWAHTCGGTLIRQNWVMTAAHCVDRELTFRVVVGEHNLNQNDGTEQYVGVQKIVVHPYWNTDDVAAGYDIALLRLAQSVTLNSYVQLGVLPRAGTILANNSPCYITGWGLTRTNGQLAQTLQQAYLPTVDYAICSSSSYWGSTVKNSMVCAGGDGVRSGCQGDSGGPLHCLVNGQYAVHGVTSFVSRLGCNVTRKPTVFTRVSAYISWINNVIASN

pIC50: 5.92
Compound: CCCCc1cs/c(=N\C(=O)c2ccc(Br)cc2)n1-c1cnc2ccccc2c1 [compound 6, (Z)-4-bromo-N-(4-butyl-3-(quinolin-3-yl)thiazol-2(3H)-ylidene)benzamide]
